In patent US20250221410A1, “SUBSTITUTED 2-C-AZINES AND SALTS THEREOF, AND USE THEREOF AS HERBICIDAL ACTIVE SUBSTANCES” (BAYER AKTIENGESELLSCHAFT, priority 2022, published 2025):

Experiments:
Type in all cases: in vivo
[1] = system: POLCO; test: Pre-emergence herbicide efficacy at 80 g/ha, POLCO; conditions: Polygonum convolvulus, scored visually after about 3 weeks
From the text: (§1) Seeds of monocotyledonous and dicotyledonous weed plants and crop plants were placed in plastic or organic planting pots and covered with soil. The compounds of the invention, formulated in the form of wettable powders (WP) or as emulsion concentrates (EC), were then applied to the surface of the covering soil as aqueous suspension or emulsion with addition of 0.5% additive at a water application rate equivalent to 600 l/ha. After the treatment, the pots were placed in a greenhouse and kept under good growth conditions for the test plants. After about 3 weeks, the efficacy of the preparations was scored visually in comparison with untreated controls as percentages. For example, 100% activity=the plants have died, 0% activity=like control plants. Tables D1 to D12 below show the effects of selected compounds of the general formula (I) according to Table 1 on various harmful plants and an application rate corresponding to 80 g/ha, which were obtained by the experimental procedure mentioned above.

[2] = system: DIGSA: Digitaria sanguinalis; test: Pre-emergence herbicide efficacy at 80 g/ha, DIGSA; conditions: scored visually after about 3 weeks
From the text: as §1

[3] = system: AMARE: Amaranthus retroflexus; test: Post-emergence herbicidal efficacy at 80 g/ha, AMARE; conditions: visual rating about 3 weeks after treatment vs untreated controls
Summary of the method: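 Visual percent activity versus untreated plants (100% = plants died) was scored roughly 3 weeks after treatment. Plants grew in greenhouse pots of sandy loam and got a post-emergence spray at one-leaf stage: WP or EC compound with 0.5% additive, 600 l/ha water.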

[4] = system: AMARE: Amaranthus retroflexus; test: Pre-emergence herbicide efficacy at 80 g/ha, AMARE; conditions: scored visually after about 3 weeks
Summary of the method: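 Seeds sown in pots and covered with soil received WP or EC formulations sprayed onto the soil surface at 80 g/ha, 600 l/ha water, with 0.5% additive. After about 3 weeks in greenhouse, efficacy was visually scored as percent versus untreated controls (100% = plants dead, 0% = like control).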

[5] = system: ABUTH: Abutilon theophrasti; test: Pre-emergence herbicide efficacy at 80 g/ha, ABUTH; conditions: scored visually after about 3 weeks
From the text: as §1

[6] = system: SETVI: Setaria viridis; test: Pre-emergence herbicide efficacy at 80 g/ha, SETVI; conditions: scored visually after about 3 weeks
From the text: as §1

[7] = system: VIOTR: Viola tricolor; test: Post-emergence herbicidal efficacy at 80 g/ha, VIOTR; conditions: visual rating about 3 weeks after treatment vs untreated controls
Description: (§2) Seeds of monocotyledonous and dicotyledonous weeds and crop plants were placed in sandy loam in plastic or organic planting pots, covered with soil and cultivated in a greenhouse under controlled growth conditions. 2 to 3 weeks after sowing, the test plants were treated at the one-leaf stage. The compounds of the invention, formulated in the form of wettable powders (WP) or as emulsion concentrates (EC), were then sprayed onto the green parts of the plants as aqueous suspension or emulsion with addition of 0.5% additive at a water application rate of 600 l/ha (converted). After the test plants had been kept in the greenhouse under optimum growth conditions for about 3 weeks, the activity of the preparations was rated visually in comparison to untreated controls. For example, 100% activity=the plants have died, 0% activity=like control plants. Tables B1 to B10 below show the effects of selected compounds of the general formula (I) according to Table 1 on various harmful plants and an application rate corresponding to 80 g/ha, which were obtained by the experimental procedure mentioned above.

[8] = system: VERPE: Veronica persica; test: Post-emergence herbicidal efficacy at 80 g/ha, VERPE; conditions: visual rating about 3 weeks after treatment vs untreated controls
Description: as §2

[9] = system: ABUTH: Abutilon theophrasti; test: Pre-emergence herbicide efficacy at 1280 g/ha, ABUTH; conditions: visual scoring after about 3 weeks vs untreated controls
Summary of the method: (§3)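 Pre-emergence pot test in sandy loam: WP or EC formulations sprayed onto covering soil after sowing, as aqueous suspension/emulsion with 0.5% additive at 600 L/ha water. Plants grown in greenhouse; after about 3 weeks, efficacy scored visually as % versus untreated controls (100% = dead, 0% = like control).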

[10] = system: ABUTH: Abutilon theophrasti; test: Post-emergence herbicidal efficacy at 1280 g/ha, ABUTH; conditions: rated visually after about 3 weeks vs untreated controls, 100% = plants have died, 0% = like control plants
Summary of the method: (§4)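 Weeds grown in sandy loam in the greenhouse were sprayed at the one-leaf stage, 2 to 3 weeks after sowing, with WP or EC formulations in water plus 0.5% additive at 600 L/ha. Damage was scored visually about 3 weeks later against untreated controls (0% = like control, 100% = plants dead).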

[11] = system: POAAN: Poa annua; test: Post-emergence herbicidal efficacy at 1280 g/ha, POAAN; conditions: visual rating about 3 weeks after treatment vs untreated controls
Summary of the method: as §4

[12] = system: KCHSC: Kochia scoparia; test: Post-emergence herbicidal efficacy at 1280 g/ha, KCHSC; conditions: visual rating about 3 weeks after treatment vs untreated controls
Summary of the method: as §4

[13] = system: ECHCG: Echinochloa crus-galli; test: Post-emergence herbicidal efficacy at 1280 g/ha, ECHCG; conditions: rated visually after about 3 weeks vs untreated controls, 100% = plants have died, 0% = like control plants
Summary of the method: as §4

[14] = system: VERPE: Veronica persica; test: Post-emergence herbicidal efficacy at 1280 g/ha, VERPE; conditions: visual rating about 3 weeks after treatment vs untreated controls
Summary of the method: as §4

[15] = system: POAAN: Poa annua; test: Pre-emergence herbicide efficacy at 1280 g/ha, POAAN; conditions: visual scoring after about 3 weeks vs untreated controls
Summary of the method: as §3

[16] = system: VERPE: Veronica persica; test: Pre-emergence herbicide efficacy at 1280 g/ha, VERPE; conditions: visual scoring vs untreated controls
Summary of the method: as §3

[17] = system: AMARE: Amaranthus retroflexus; test: Pre-emergence herbicide efficacy at 1280 g/ha, AMARE; conditions: visual scoring after about 3 weeks vs untreated controls
Summary of the method: as §3

[18] = system: STEME: Stellaria media; test: Post-emergence herbicidal efficacy at 1280 g/ha, STEME; conditions: visual rating about 3 weeks after treatment vs untreated controls
Summary of the method: as §4

[19] = system: SETVI: Setaria viridis; test: Pre-emergence herbicide efficacy at 1280 g/ha, SETVI; conditions: visual scoring vs untreated controls
Summary of the method: as §3

[20] = system: ALOMY: Alopecurus myosuroides; test: Post-emergence herbicidal efficacy at 1280 g/ha, ALOMY; conditions: rated visually after about 3 weeks vs untreated controls, 100% = plants have died, 0% = like control plants
Description: (§5) Seeds of mono- and dicotyledonous weed plants were placed in plastic pots in sandy loam soil (doubly sown with in each case one species of mono- or dicotyledonous weed plants per pot), covered with soil and cultivated in a greenhouse under controlled growth conditions. 2 to 3 weeks after sowing, the test plants were treated at the one-leaf stage. The compounds of the invention, formulated in the form of wettable powders (WP) or as emulsion concentrates (EC), were applied to the green parts of the plants as aqueous suspension or emulsion with addition of 0.5% additive at a water application rate equivalent to 600 litres per hectare. After the test plants had been kept in the greenhouse under optimum growth conditions for about 3 weeks, the activity of the preparations was rated visually in comparison to untreated controls. For example, 100% activity=the plants have died, 0% activity=like control plants. Tables A1 to A12 below show the effects of selected compounds of the general formula (I) according to Table 1 on various harmful plants and at an application rate corresponding to 1280 g/ha, which were obtained by the trial procedure specified above.

[21] = system: AMARE: Amaranthus retroflexus; test: Post-emergence herbicidal efficacy at 1280 g/ha, AMARE; conditions: rated visually after about 3 weeks vs untreated controls, 100% = plants have died, 0% = like control plants
Summary of the method: as §4

[22] = system: SETVI: Setaria viridis; test: Post-emergence herbicidal efficacy at 1280 g/ha, SETVI; conditions: visual rating about 3 weeks after treatment vs untreated controls
Summary of the method: as §4

[23] = system: MATIN: Matricaria inodora; test: Pre-emergence herbicide efficacy at 80 g/ha, MATIN; conditions: scored visually after about 3 weeks
From the text: as §1

[24] = system: LOLRI: Lolium rigidum; test: Post-emergence herbicidal efficacy at 1280 g/ha, LOLRI; conditions: visual rating about 3 weeks after treatment vs untreated controls
Description: as §5

[25] = system: DIGSA: Digitaria sanguinalis; test: Pre-emergence herbicide efficacy at 1280 g/ha, DIGSA; conditions: visual scoring after about 3 weeks vs untreated controls
Summary of the method: as §3

[26] = system: ECHCG: Echinochloa crus-galli; test: Pre-emergence herbicide efficacy at 1280 g/ha, ECHCG; conditions: visual scoring after about 3 weeks vs untreated controls
Summary of the method: as §3

[27] = system: STEME: Stellaria media; test: Pre-emergence herbicide efficacy at 1280 g/ha, STEME; conditions: visual scoring vs untreated controls
Summary of the method: as §3

[28] = system: MATIN: Matricaria inodora; test: Pre-emergence herbicide efficacy at 1280 g/ha, MATIN; conditions: visual scoring after about 3 weeks vs untreated controls
Summary of the method: as §3

[29] = system: KCHSC: Kochia scoparia; test: Pre-emergence herbicide efficacy at 1280 g/ha, KCHSC; conditions: visual scoring after about 3 weeks vs untreated controls
Summary of the method: as §3

[30] = system: DIGSA: Digitaria sanguinalis; test: Post-emergence herbicidal efficacy at 1280 g/ha, DIGSA; conditions: rated visually after about 3 weeks vs untreated controls, 100% = plants have died, 0% = like control plants
Summary of the method: as §4

[31] = system: VERPE: Veronica persica; test: Pre-emergence herbicide efficacy at 80 g/ha, VERPE; conditions: scored visually after about 3 weeks
From the text: as §1

| SMILES | Pre-emergence efficacy against POLCO in % [1] [%] | Pre-emergence efficacy against DIGSA in % [2] [%] | Post-emergence efficacy against AMARE [3] [%] | Pre-emergence efficacy against AMARE in % [4] [%] | Pre-emergence efficacy against ABUTH in % [5] [%] | Pre-emergence efficacy against SETVI in % [6] [%] | Pre-emergence efficacy against ABUTH [9] [%] | Post-emergence efficacy at 1280 g/ha against ABUTH in % [10] [%] | Post-emergence efficacy against POAAN [11] [%] | Post-emergence efficacy against KCHSC [12] [%] | Post-emergence efficacy against VERPE [14] [%] | Pre-emergence efficacy against POAAN [15] [%] | Pre-emergence efficacy against AMARE [17] [%] | Post-emergence efficacy against STEME [18] [%] | Post-emergence efficacy at 1280 g/ha against AMARE in % [21] [%] | further results |
| --- | --- | --- | --- | --- | --- | --- | --- | --- | --- | --- | --- | --- | --- | --- | --- | --- |
| Fc1cnc(Oc2c(F)cccc2Cc2ncc(Cl)cn2)nc1 [Example 1-152] | 90 | 90 | 90 | 100 | 80 | 80 |  |  |  |  |  |  |  |  |  |  |
| Cc1cccc(Cc2ncc(Cl)cn2)c1Oc1ncc(Cl)cn1 [Example 1-166] | 90 | 100 |  | 95 |  | 80 |  |  |  |  |  |  |  |  |  |  |
| Fc1ccc(Oc2ccccc2Cc2ncc(F)cn2)cc1 [Example 1-67] |  |  | 100 | 90 | 100 |  |  |  |  |  |  |  |  |  |  | Post-emergence efficacy against VIOTR [7]: 100%; Post-emergence efficacy against VERPE [8]: 80% |
| Fc1cc(Cl)cnc1Cc1ccccc1-n1cc(C(F)(F)F)cn1 [Example 1-130] |  |  |  |  |  |  | 100 | 100 | 100 | 100 | 100 | 90 | 100 | 100 | 100 | Post-emergence efficacy at 1280 g/ha against ECHCG in % [13]: 90%; Pre-emergence efficacy against VERPE in % [16]: 90%; Pre-emergence efficacy against SETVI in % [19]: 90%; Post-emergence efficacy at 1280 g/ha against ALOMY in % [20]: 90%; Post-emergence efficacy against SETVI [22]: 90% |
| Fc1cnc(Cc2cccc(Cl)c2Oc2ncc(F)cn2)nc1 [Example 1-156] | 80 | 90 | 80 | 100 | 90 |  |  |  |  |  |  |  |  |  |  | Pre-emergence efficacy against MATIN in % [23]: 80% |
| Fc1ccc(Oc2c(F)cccc2Cc2ncc(Cl)cn2)cc1 [Example 1-35, 5-Chloro-2-[3-fluoro-2-(4-fluorophenoxy)benzyl]pyrimidine] |  |  |  |  |  |  | 90 | 100 | 90 | 100 | 100 | 90 | 100 | 100 | 100 | Post-emergence efficacy against LOLRI [24]: 90%; Pre-emergence efficacy against DIGSA [25]: 90%; Post-emergence efficacy at 1280 g/ha against ECHCG in % [13]: 100%; Pre-emergence efficacy against ECHCG [26]: 90%; Pre-emergence efficacy against STEME in % [27]: 100%; Pre-emergence efficacy against VERPE in % [16]: 100%; Pre-emergence efficacy against MATIN [28]: 90%; Pre-emergence efficacy against SETVI in % [19]: 90%; Pre-emergence efficacy against KCHSC [29]: 100%; Post-emergence efficacy at 1280 g/ha against ALOMY in % [20]: 90%; Post-emergence efficacy at 1280 g/ha against DIGSA in % [30]: 90%; Post-emergence efficacy against SETVI [22]: 90% |
| Fc1cc(Cl)cnc1Cc1ccccc1SCCC(F)(F)F [Example 1-110] |  |  |  |  |  |  | 90 | 90 | 100 | 90 | 100 | 90 | 100 | 100 | 100 | Post-emergence efficacy against LOLRI [24]: 90%; Pre-emergence efficacy against STEME in % [27]: 100% |
| Fc1ccc(Cc2c(F)cccc2Oc2ncc(Cl)cn2)nc1 [Example 1-194] | 90 | 90 | 98 | 100 |  | 100 |  |  |  |  |  |  |  |  |  | Pre-emergence efficacy against VERPE in % [31]: 90% |
